Laboratory results as given in paper PMC7284125, “Identification of annotated bioactive molecules that impair motility of the blood fluke Schistosoma mansoni” (International Journal for Parasitology: Drugs and Drug …, 2020).
Where two headings read alike, the source gives them in different places.

Legend:
[1] = test system: S. mansoni schistosomulae; assay: Phenotypic primary screen assay on schistosomulae (phenotype; viability by methylene blue dye exclusion); type: cell-based, Schistosoma mansoni; details: for effect on viability of schistosomulae in words: 24 h incubation, five days; for Phenotype: three-day-old schistosomulae, 10 μM, 24 h, estimated 5 days post compound exposure
Method in brief: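 Parasites lacking contraction/relaxation cycles and showing dark internal granulations counted as dead. Movement and body shape were compared with DMSO-treated controls under a stereo microscope at 24 h and at five days of exposure. Larvae came from infected snails shed under light for 2 h at 32 °C.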

[2] = test system: S. mansoni schistosomulae; assay: Motility assay on schistosomulae (pixel displacement, relative to DMSO control); type: cell-based, Schistosoma mansoni; details: for activity at 1 µM: Schistosoma mansoni, read-out: Fractional motility
Method in brief: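 Mechanically transformed S. mansoni schistosomulae (200/well) in Opti-MEM with 5% dialyzed FBS were exposed to compounds at 1 and 10 μM for 24 h at 37 °C, 5% CO2. Motility filmed at 10 frames/s for 1 min and quantified by pixel displacement relative to DMSO-treated controls.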

S. mansoni adult worms = assay: Motility assay on adult parasites (pixel displacement, relative to DMSO control); type: cell-based, Schistosoma mansoni; details: 10 μM
Method in brief: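 Unpaired adult worms from mice 6 weeks post-infection kept in OPTI-MEM with 5% dialyzed FBS and exposed to compounds at 1 and 10 μM for 24 h. Motility filmed 1 min at 10 frames/s, quantified by pixel displacement versus DMSO-treated worms; recovery followed up to five days after washout.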

[3] = test system: S. mansoni schistosomulae; assay: Phenotypic primary screen assay on schistosomulae (phenotype; viability by methylene blue dye exclusion); type: cell-based; details: Schistosoma mansoni; three-day-old schistosomulae, 10 μM, 24 h; calculated 5 days post compound exposure; read-out: Viability (%)
schistosomes = test system: schistosomes; set-up: method as in de Almeida et al., 2016; details: 12.5–100 μM; ref de Almeida et al., 2016; cited from earlier work
SmD2 = SmD2 (Schistosoma mansoni, UniProt G4LUJ1); assay: cell-based; type: cell-based
Chain of SmD2 (G4LUJ1 entry or part of it): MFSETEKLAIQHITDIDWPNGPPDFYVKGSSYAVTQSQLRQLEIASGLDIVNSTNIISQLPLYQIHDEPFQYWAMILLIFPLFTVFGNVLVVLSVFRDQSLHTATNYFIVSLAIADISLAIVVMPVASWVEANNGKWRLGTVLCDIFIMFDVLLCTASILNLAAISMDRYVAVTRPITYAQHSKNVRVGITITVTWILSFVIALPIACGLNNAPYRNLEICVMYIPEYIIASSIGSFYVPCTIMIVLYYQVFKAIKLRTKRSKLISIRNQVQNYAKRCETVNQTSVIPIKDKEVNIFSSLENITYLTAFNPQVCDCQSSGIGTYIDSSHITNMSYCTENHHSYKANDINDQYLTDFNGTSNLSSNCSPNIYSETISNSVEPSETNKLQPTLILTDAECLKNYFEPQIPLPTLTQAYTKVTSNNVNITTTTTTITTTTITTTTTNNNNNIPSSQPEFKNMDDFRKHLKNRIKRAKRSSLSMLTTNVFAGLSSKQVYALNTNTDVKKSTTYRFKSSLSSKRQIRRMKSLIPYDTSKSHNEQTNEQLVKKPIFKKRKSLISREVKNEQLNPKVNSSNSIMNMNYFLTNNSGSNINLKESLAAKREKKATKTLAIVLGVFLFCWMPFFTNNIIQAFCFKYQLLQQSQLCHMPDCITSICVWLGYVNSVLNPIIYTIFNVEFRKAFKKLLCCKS

human CaSR = test system: human CaSR; set-up: method as in Nemeth et al., 2001; details: ref Nemeth et al., 2001; cited from earlier work
[4] = set-up: method as in Rybczynska et al., 2006; details: 1 mg/kg, normotensive rats; ref Rybczynska et al., 2006; cited from earlier work
[5] = secondary screen, D1, Female adult worms
[6] = secondary screen, D1, Male adult worms
[7] = secondary screen, D5, Female adult worms
[8] = secondary screen, D5, Male adult worms

Question: Which results are given for C=C1C(=O)O[C@H]2[C@H]1CC/C(C)=C/CC[C@@]1(C)O[C@@H]21 [(-)-Parthenolide]?
Answer: effect on viability of schistosomulae in words [1]: total schistosomulicid action; Phenotype [1]: big, dark, granulated; activity at 1 µM ([2]; 120 h, schistosomulae, secondary screen, 24h exposure, read at D5, 1 µM): -16%; activity at 1 µM ([2]; schistosomulae, secondary screen, 24h exposure, read at D1, 1 µM): -3%; Fractional motility ([2]; schistosomulae, 1h exposure, read at D1, 10 µM): -0.61; Fractional motility ([2]; schistosomulae, 1h exposure, read at D5, 10 µM): -0.72; Fractional motility ([2]; schistosomulae, 3h exposure, read at D1, 10 µM): -0.27; Fractional motility ([2]; schistosomulae, 3h exposure, read at D5, 10 µM): -0.10; Fractional motility ([2]; schistosomulae, 6h exposure, read at D1, 10 µM): 3.66; Fractional motility ([2]; schistosomulae, 6h exposure, read at D5, 10 µM): -0.86; Fractional motility ([2]; schistosomulae, secondary screen, 24h exposure, read at D1, 10 µM): 0.67; Fractional motility ([2]; schistosomulae, secondary screen, 24h exposure, read at D5, 10 µM): -0.99; hypomotility (S. mansoni adult worms; adult male and female parasites, long-term): 49.5%; motility phenotype in words (S. mansoni adult worms; adults, long-term after washout): severely paralyzed adults; Fractional motility (S. mansoni adult worms; [5]): -0.36; Fractional motility (S. mansoni adult worms; [6]): 0.14; Fractional motility (S. mansoni adult worms; [7]): -0.65; Fractional motility (S. mansoni adult worms; [8]): -0.34; viability at 10 µM [3]: 0%; mortality (schistosomes): 100%

Question: For CC(C)(Cc1ccc2ccccc2c1)NC[C@@H](O)COc1cccc(Cl)c1C#N [NPS-2143], which “effect on viability of schistosomulae in words” value [1] is on record?
Answer: no effect on viability

Question: And the Phenotype [1]?
Answer: big, granulated

Question: What about the Fractional motility ([2]; 1h, D1, 10 µM) of the same compound?
Answer: -0.86

Question: And the Fractional motility ([2]; 1h, D5, 10 µM)?
Answer: -0.00164

Question: And the Fractional motility ([2]; 3h, D1, 10 µM)?
Answer: 0.27

Question: What about the Fractional motility ([2]; 3h, D5, 10 µM) of the same compound?
Answer: -0.84

Question: And the Fractional motility ([2]; 6h, D1, 10 µM)?
Answer: 14.69

Question: And the Fractional motility ([2]; 6h, D5, 10 µM)?
Answer: -0.27

Question: What about the Fractional motility ([2]; NPS-2143 and analogs, 24h, D1, 1 µM) of the same compound?
Answer: -0.50

Question: And the Fractional motility ([2]; NPS-2143 and analogs, 24h, D1, 10 µM)?
Answer: 49.26

Question: And the Fractional motility ([2]; NPS-2143 and analogs, 24h, D5, 1 µM)?
Answer: -0.09

Question: And the Fractional motility ([2]; NPS-2143 and analogs, 24h, D5, 10 µM)?
Answer: -0.99

Question: What about the activity at 1 µM ([2]; 120 h, Selleckchem customized library secondary screen, 24h, D5, 1 µM) of the same compound?
Answer: -9%

Question: What about the activity at 1 µM ([2]; Selleckchem customized library secondary screen, 24h, D1, 1 µM) of the same compound?
Answer: -50%

Question: What about the Fractional motility ([2]; Selleckchem customized library secondary screen, 24h, D1, 10 µM) of the same compound?
Answer: 49.26

Question: And the Fractional motility ([2]; Selleckchem customized library secondary screen, 24h, D5, 10 µM)?
Answer: -0.99

Question: What about the “hypermotility relative to control” value ([2]; schistosomulae, after 24 h incubation) of the same compound?
Answer: up to 50 fold

Question: And the “motility phenotype in words” value ([2]; schistosomulae, long-term, five days after compound washout)?
Answer: complete paralysis

Question: What about the Fractional motility (S. mansoni adult worms; adult female worms, D1) of the same compound?
Answer: -0.33

Question: And the Fractional motility (S. mansoni adult worms; adult female worms, D5)?
Answer: -0.92

Question: What about the Fractional motility (S. mansoni adult worms; adult male worms, D1) of the same compound?
Answer: -0.52

Question: What about the Fractional motility (S. mansoni adult worms; adult male worms, D5) of the same compound?
Answer: -0.30

Question: What about the Fractional motility (S. mansoni adult worms; [5]) of the same compound?
Answer: -0.33

Question: And the Fractional motility (S. mansoni adult worms; [6])?
Answer: -0.52

Question: What about the Fractional motility (S. mansoni adult worms; [7]) of the same compound?
Answer: -0.92

Question: And the Fractional motility (S. mansoni adult worms; [8])?
Answer: -0.30

Question: And the inhibition at 10 µM (SmD2; HEK293, SmD2 cells, 10 μM compound, 50 μM EPN, read-out: inhibition of EPN-evoked luminescence)?
Answer: 91.1%

Question: What about the IC50 (SmD2; inhibition of EPN-evoked luminescence, concentration-response assay, read-out: IC50) of the same compound?
Answer: 2.53 ± 0.28 nM

Question: And the viability at 10 µM [3]?
Answer: 82%

Question: And the IC50 (human CaSR)?
Answer: 43 nM

Question: What about the “effect on blood pressure” value [4] of the same compound?
Answer: significantly increases blood pressure
